Experimental data reported in PMC3580045 (Journal of pharmacy & pharmaceutical sciences : a …, 2012).
Like-named read-outs stand apart in the source and are kept apart here. Marks after values point to notes of the source that are not given here.

What was measured:
[1] = Hydrolysis in human tumor liver tissue homogenate; format: in vitro ADME; settings: mean ± SD, n = 3; NA = no significant degradation
[2] = pH 7.4 phosphate buffer, 37°C; mean ± SD; cited from earlier work
[3] = Hydrolysis in human non-tumor liver tissue homogenate; format: in vitro ADME; settings: for Half-lives, Human non-Tumor Liver Tissue Homogenate: mean ± SD, n = 3, NA = no significant degradation
[4] = Hydrolysis in human small intestinal; format: in vitro ADME
[5] = Hydrolysis in Caco-2 cell homogenate; format: in vitro ADME, human; settings: for Half-lives, Caco-2 Cell Homogenate: pH 7.4 phosphate buffer, 37°C, mean ± SD, n = 3, NA = no significant degradation
[6] = mean ± SD; cited from earlier work
[7] = Stability in human liver microsomes; settings: for Half-lives, Human Liver Microsomes: mean ± SD, n = 3, NA = no significant degradation
[8] = Hydrolysis in Capan-2 cell homogenate; format: in vitro ADME, human
[9] = mean ± SD; cited from earlier work; remark: listed apart in the source
[10] = Hydrolysis in AsPC-1 cell homogenate; format: in vitro ADME; settings: human, pH 7.4
[11] = reported by several groups; cited from earlier work
[12] = Hydrolysis in human pancreas; format: in vitro ADME; settings: human pancreas tissue homogenate
[13] = phosphate buffer

| SMILES | Half-lives, Human Tumor Liver Tissue Homogenate [1] | Half-lives, Human non-Tumor Liver Tissue Homogenate [3] [min] | Half-lives, Caco-2 Cell Homogenate [5] [min] | Half-lives, Human Liver Microsomes [7] [min] | Half-lives, Buffer pH 7.4 [2] | Half-lives, AsPC-1 Cell Homogenate [6] | Half-lives, Capan-2 Cell Homogenate [9] | other results |
| --- | --- | --- | --- | --- | --- | --- | --- | --- |
| CC(C)[C@@H](N)C(=O)OC[C@H]1O[C@@H](n2cc(F)c(=O)[nH]c2=O)C[C@@H]1O [5′-O-D-valyl-floxuridine] | 9.4 ± 0.5 ^∞ min | 19.0 ± 0.2 | 220.4 ± 64.0 | 705.9 ± 64.2 | 344.9 ± 10.2 ^a min | 290.9 ± 48.9 ^a min |  | fold better stability than 5′-O-L-valyl-floxuridine ([3]; human liver tissue homogenates (non-tumor and tumor)): 3- to 10 fold; fold more stable than 5′-O-L-valyl-floxuridine ([4]; human intestinal tissue homogenate): 11.3 fold; fold more stable than 5′-O-L-valyl-floxuridine ([5]; Caco-2 homogenate): 16.1 fold; fold better stability than 5′-O-L-valyl-floxuridine ([7]; human liver microsomes): 243 fold; fold more stable in human liver microsomes than in human liver tissue homogenates ([7]; microsomes vs liver tissue homogenates): at least 37 fold; Half-lives, Capan-2 Cell Homogenate ([8]; mean ± SD, n = 3, NA = no significant degradation): 188.3 ± 12.1 min |
| CC[C@H](C)[C@H](N)C(=O)OC[C@H]1O[C@@H](n2cc(F)c(=O)[nH]c2=O)C[C@@H]1O [5′-O-L-isoleucyl-floxuridine] | < 0.2 min ^∞ | 5.2 ± 0.1 | 131.6 ± 48.4 | 19.4 ± 7.8 | 323.5 ± 1.5 ^a min | 198.0 ± 70.2 ^b min | 139.9 ± 15.3 ^b min |  |
| CC(C)C[C@H](N)C(=O)OC[C@H]1O[C@@H](n2cc(F)c(=O)[nH]c2=O)C[C@@H]1O [5′-O-L-leucyl-floxuridine] |  | < 0.2 | 3.3 ± 0.9 | 0.8 ± 0.1 | 83.2 ± 1.7 ^b min | 2.0 ± 0.1 ^a min | 4.7 ± 2.1 ^b min |  |
| N[C@@H](Cc1ccccc1)C(=O)NCC(=O)OC[C@H]1O[C@@H](n2cc(F)c(=O)[nH]c2=O)C[C@@H]1O [5′-O-L-phenylalanyl-L-glycyl-floxuridine] |  | 3.2 ± 0.3 | 2.9 ± 0.5 | 15.9 ± 1.9 | 132.1 ± 10.2 ^b min | 10.2 ± 0.3 ^b min | 4.3 ± 0.9 ^b min |  |
| N[C@@H](Cc1ccccc1)C(=O)N[C@@H](Cc1ccc(O)cc1)C(=O)OC[C@H]1O[C@@H](n2cc(F)c(=O)[nH]c2=O)C[C@@H]1O [5′-O-L-phenylalanyl-L-tyrosyl-floxuridine] | 241.4 ± 5.1 min | 358.3 ± 20.3 | 115.2 ± 54.2 | 253.0 ± 36.2 | 233.9 ± 6.6 ^b min | 59.7 ± 1.4 ^b min | 42.8 ± 0.0 ^b min |  |
| N[C@@H](Cc1ccccc1)C(=O)OC[C@H]1O[C@@H](n2cc(F)c(=O)[nH]c2=O)C[C@@H]1O [5′-O-L-phenylalanyl-floxuridine] |  | 3.2 ± 1.2 | 12.2 ± 0.1 | 1.3 ± 0.4 | 187.0 ± 19.0 ^b min | 11.8 ± 1.7 ^b min | 3.0 ± 0.1 ^b min |  |
| O=c1[nH]c(=O)n([C@H]2C[C@H](O)[C@@H](CO)O2)cc1F [Floxuridine, 5-fluoro-2′-deoxyuridine, reference compound] |  |  |  |  |  |  |  | half-life ([3]; human, human non-tumor liver tissue homogenate, pH 7.4): 5 ± 2.4 min; half-life ([4]; human, pH 7.4): 14 ± 4 min; half-life ([5]; human, Caco-2, pH 7.4): 14.3 ± 7 min; half-life ([7]; human, human liver microsomes): < 0.2 min; half-life [10]: 6.4 ± 3.2 min; fold higher potency than 5-FU [11]: 10- to 100 fold; half-life ([8]; human, Capan-2 cell homogenate, pH 7.4): 17.8 ± 5.8 min; stability (in words) [12]: good stability; half-life ([12]; human, non-tumor, pH 7.4): 209 ± 19.4 min |
| O=C(O[C@H]1C[C@H](n2cc(F)c(=O)[nH]c2=O)O[C@@H]1CO)[C@@H]1CCCN1 [Floxuridine-3′-L-proline] |  |  |  |  |  |  |  | degradation (in words) ([3]; human liver tissue homogenate, over 2 hr): no significant degradation; stability (in words) ([4]; human small bowel tissue homogenate): stable; stability (in words) ([5]; Caco-2 cell homogenate): stable; degradation (in words) ([7]; human liver microsomes, over 2 hr): no significant degradation; stability (in words) [13]: stable |

Continued, in another order:

| Half-lives, Human Tumor Liver Tissue Homogenate [1] | Half-lives, Human non-Tumor Liver Tissue Homogenate [3] [min] | Half-lives, Caco-2 Cell Homogenate [5] [min] | Half-lives, Human Liver Microsomes [7] [min] | SMILES | Half-lives, Buffer pH 7.4 [2] | Half-lives, AsPC-1 Cell Homogenate [6] | Half-lives, Capan-2 Cell Homogenate [9] | other results |
| --- | --- | --- | --- | --- | --- | --- | --- | --- |
| < 0.2 min ^* ^∞ | 2.2 ± 0.0 | 57.6 ± 9.3 | 24.7 ± 2.4 | CC(C)[C@H](N)C(=O)N[C@@H](Cc1ccccc1)C(=O)OC[C@H]1O[C@@H](n2cc(F)c(=O)[nH]c2=O)C[C@@H]1O [5′-O-L-valyl-L-phenylalanyl-floxuridine] | 104.7 ± 7.0 ^b min | 51.6 ± 4.2 ^b min | 56.2 ± 12.8 ^b min |  |
| 3.5 ± 0.2 ^∞ min | 2.0 ± 0.3 | 13.7 ± 2.0 | 2.9 ± 0.1 | CC(C)[C@H](N)C(=O)OC[C@H]1O[C@@H](n2cc(F)c(=O)[nH]c2=O)C[C@@H]1O [5′-O-L-valyl-floxuridine] | 304.0 ± 33.3 ^b min | 18.7 ± 6.7 ^b min | 5.2 ± 2.4 ^b min |  |
